Experimental findings from paper PMC5218480 (PLoS ONE, 2017) are described below.

In this test the test system is MV-4-11 cells. Kind of test: Gene expression microarray analysis (Affymetrix PrimeView) and GSEA. It is filed as cell-based, human. Set-up: RFU PODN (11730768_x_at) / Fold change /veh PODN (11730768_x_at) / RFU LINC00158 (11744669_a_at) / Fold change /veh LINC00158 (11744669_a_at) / RFU DUSP10 (11751237_a_at) / Fold change /veh DUSP10 (11751237_a_at) / RFU ID3 (11757404_x_at) / Fold change /veh ID3 (11757404_x_at) / RFU PLEKHG5 (11737974_s_at) / Fold change /veh PLEKHG5 (11737974_s_at) / RFU LRRC4B (11730491_at) / Fold change /veh LRRC4B (11730491_at) / RFU GIMAP4 (11747438_a_at) / Fold change /veh GIMAP4 (11747438_a_at) / RFU KRT8 (11758183_x_at) / Fold change /veh KRT8 (11758183_x_at) / RFU CNN1 (11734310_a_at) / Fold change /veh CNN1 (11734310_a_at) / RFU VPS37D (11726825_at) / Fold change /veh VPS37D (11726825_at) / RFU C10orf10 (11716522_x_at) / Fold change /veh C10orf10 (11716522_x_at) / RFU KIR2DL2 /// KIR2DL4 /// KIR2DL5A /// KIR2DL5B /// KIR2DS1 /// KIR2DS2 /// KIR2DS3 /// KIR2DS4 /// KIR3DL3 /// KIR3DL3 /// KIR3DS1 (11738374_at) / Fold change /veh KIR2DL2 /// KIR2DL4 /// KIR2DL5A /// KIR2DL5B /// KIR2DS1 /// KIR2DS2 /// KIR2DS3 /// KIR2DS4 /// KIR3DL3 /// KIR3DL3 /// KIR3DS1 (11738374_at) / RFU C1QL1 (11718748_at) / Fold change /veh C1QL1 (11718748_at) / RFU TMPRSS4 (11747572_a_at) / Fold change /veh TMPRSS4 (11747572_a_at) / RFU HAMP (11756126_x_at) / Fold change /veh HAMP (11756126_x_at) / RFU RNFT2 (11725882_a_at) / Fold change /veh RNFT2 (11725882_a_at) / RFU NR4A2 (11747474_a_at) / Fold change /veh NR4A2 (11747474_a_at) / RFU ABCC12 (11746883_a_at) / Fold change /veh ABCC12 (11746883_a_at) / RFU TMEM136 (11760407_x_at) / Fold change /veh TMEM136 (11760407_x_at) / RFU CLDN22 /// WWC2 (11732394_at) / Fold change /veh CLDN22 /// WWC2 (11732394_at) / RFU HLA-DPB1 (11760878_x_at) / Fold change /veh HLA-DPB1 (11760878_x_at) / RFU SPINT1 (11716480_a_at) / Fold change /veh SPINT1 (11716480_a_at) / RFU GAP43 (11754022_s_at) / Fold change /veh GAP43 (11754022_s_at) / RFU A4GNT (11735810_at) / Fold change /veh A4GNT (11735810_at) / RFU PRB3 (11715151_x_at) / Fold change /veh PRB3 (11715151_x_at) / RFU TUBB4B (11761932_at) / Fold change /veh TUBB4B (11761932_at) / RFU CAPN14 (11732068_a_at) / Fold change /veh CAPN14 (11732068_a_at) / RFU TMCC2 (11721928_a_at) / Fold change /veh TMCC2 (11721928_a_at) / RFU IRGQ (11745062_a_at) / Fold change /veh IRGQ (11745062_a_at) / RFU FAM174B (11720279_a_at) / Fold change /veh FAM174B (11720279_a_at) / RFU TMPRSS4 (11748680_a_at) / Fold change /veh TMPRSS4 (11748680_a_at) / RFU FAM212B (11763350_a_at) / Fold change /veh FAM212B (11763350_a_at) / RFU PLEKHG5 (11743358_a_at) / Fold change /veh PLEKHG5 (11743358_a_at) / RFU ZSCAN30 (11745921_a_at) / Fold change /veh ZSCAN30 (11745921_a_at) / RFU CMKLR1 (11741424_a_at) / Fold change /veh CMKLR1 (11741424_a_at) / RFU LOC101060620 /// MAPK8IP1 (11723275_at) / Fold change /veh LOC101060620 /// MAPK8IP1 (11723275_at) / RFU SPTSSB (11747773_x_at) / Fold change /veh SPTSSB (11747773_x_at) / RFU PRSS12 (11739890_at) / Fold change /veh PRSS12 (11739890_at) / RFU BIN1 (11741810_x_at) / Fold change /veh BIN1 (11741810_x_at) / RFU WNT11 (11732464_a_at) / Fold change /veh WNT11 (11732464_a_at) / RFU C10orf10 (11716521_a_at) / Fold change /veh C10orf10 (11716521_a_at) / RFU C5orf56 (11738089_at) / Fold change /veh C5orf56 (11738089_at) / RFU CYB561 (11721691_x_at) / Fold change /veh CYB561 (11721691_x_at) / RFU ANKRD19P (11752326_a_at) / Fold change /veh ANKRD19P (11752326_a_at) / RFU OR2T12 /// OR2T33 /// OR2T8 (11738714_s_at) / Fold change /veh OR2T12 /// OR2T33 /// OR2T8 (11738714_s_at) / RFU VCAN (11748164_a_at) / Fold change /veh VCAN (11748164_a_at) / RFU JSRP1 (11732532_at) / Fold change /veh JSRP1 (11732532_at) / RFU KRTAP10-11 (11738290_x_at) / Fold change /veh KRTAP10-11 (11738290_x_at) / RFU MYO3A (11730013_a_at) / Fold change /veh MYO3A (11730013_a_at) / RFU EBF3 (11725865_a_at) / Fold change /veh EBF3 (11725865_a_at) / RFU CAMK2N1 (11719241_x_at) / Fold change /veh CAMK2N1 (11719241_x_at) / RFU C5orf56 (11738088_a_at) / Fold change /veh C5orf56 (11738088_a_at) / RFU OLFML3 (11715873_a_at) / Fold change /veh OLFML3 (11715873_a_at) / RFU LOC100653217 /// NTM (11731650_a_at) / Fold change /veh LOC100653217 /// NTM (11731650_a_at) / RFU MAPK11 (11762145_a_at) / Fold change /veh MAPK11 (11762145_a_at) / RFU FIZ1 (11724087_x_at) / Fold change /veh FIZ1 (11724087_x_at) / RFU OASL (11726364_x_at) / Fold change /veh OASL (11726364_x_at) / RFU SOX15 (11748057_x_at) / Fold change /veh SOX15 (11748057_x_at) / RFU CD79A (11719716_a_at) / Fold change /veh CD79A (11719716_a_at) / RFU HIST1H1D (11736915_at) / Fold change /veh HIST1H1D (11736915_at) / RFU CASKIN2 (11723855_a_at) / Fold change /veh CASKIN2 (11723855_a_at) / RFU LOC730098 (11760151_x_at) / Fold change /veh LOC730098 (11760151_x_at) / RFU OR4N2 (11742367_at) / Fold change /veh OR4N2 (11742367_at) / RFU PRRT2 (11749266_a_at) / Fold change /veh PRRT2 (11749266_a_at) / RFU SNX32 (11753110_a_at) / Fold change /veh SNX32 (11753110_a_at) / RFU CDHR5 (11726645_a_at) / Fold change /veh CDHR5 (11726645_a_at) / RFU RCAN1 (11760418_a_at) / Fold change /veh RCAN1 (11760418_a_at) / RFU FAM167A (11723789_a_at) / Fold change /veh FAM167A (11723789_a_at) / RFU FAM26E (11764081_at) / Fold change /veh FAM26E (11764081_at) / RFU ISYNA1 (11749810_s_at) / Fold change /veh ISYNA1 (11749810_s_at) / RFU ACY1 (11761880_at) / Fold change /veh ACY1 (11761880_at) / RFU 11764098_at / Fold change /veh 11764098_at / RFU SAMD14 (11745864_x_at) / Fold change /veh SAMD14 (11745864_x_at) / RFU NPB (11741838_a_at) / Fold change /veh NPB (11741838_a_at) / RFU TMPRSS6 (11731388_a_at) / Fold change /veh TMPRSS6 (11731388_a_at) / RFU KRTAP10-2 (11738614_at) / Fold change /veh KRTAP10-2 (11738614_at) / RFU ARHGAP8 /// PRR5-ARHGAP8 (11727945_x_at) / Fold change /veh ARHGAP8 /// PRR5-ARHGAP8 (11727945_x_at) / RFU KRTAP5-7 /// NADSYN1 (11734609_at) / Fold change /veh KRTAP5-7 /// NADSYN1 (11734609_at) / RFU RASL12 (11751679_a_at) / Fold change /veh RASL12 (11751679_a_at) / RFU CDKN2B (11736163_a_at) / Fold change /veh CDKN2B (11736163_a_at) / RFU PRF1 (11729649_at) / Fold change /veh PRF1 (11729649_at) / RFU, ZNF638 /// ZNF638-IT1 / Fold change vs veh, ZNF638 /// ZNF638-IT1 / RFU, PANK3 / Fold change vs veh, PANK3 / RFU, SH3YL1 / Fold change vs veh, SH3YL1 / RFU, ZEB2 / Fold change vs veh, ZEB2 / RFU, NRIP1 / Fold change vs veh, NRIP1 / RFU, PTTG1IP / Fold change vs veh, PTTG1IP / RFU, CAPN2 / Fold change vs veh, CAPN2 / RFU, MED14 / Fold change vs veh, MED14 / RFU, SNORA58 / Fold change vs veh, SNORA58 / RFU, C1orf63 / Fold change vs veh, C1orf63 / RFU, LRRFIP1 / Fold change vs veh, LRRFIP1 / RFU, NDUFAF7 / Fold change vs veh, NDUFAF7 / RFU, SLC12A2 / Fold change vs veh, SLC12A2 / RFU, IBTK / Fold change vs veh, IBTK / RFU, ESF1 / Fold change vs veh, ESF1 / Fold change vs veh, TMEM50B / RFU, TAOK1 / Fold change vs veh, TAOK1 / RFU, ACBD3 / Fold change vs veh, ACBD3 / RFU, TMA16 / Fold change vs veh, TMA16 / RFU, RWDD3 / Fold change vs veh, RWDD3 / RFU, BCAT1 / Fold change vs veh, BCAT1 / RFU, EDEM3 / Fold change vs veh, EDEM3 / RFU, TMEM33 / Fold change vs veh, TMEM33 / RFU, WDR75 / Fold change vs veh, WDR75 / RFU, AHCTF1 / Fold change vs veh, AHCTF1 / RFU, TFRC / Fold change vs veh, TFRC / RFU, ZDHHC17 / Fold change vs veh, ZDHHC17 / RFU, NOM1 / Fold change vs veh, NOM1 / RFU, ARL8B / Fold change vs veh, ARL8B / RFU, ZBTB11 / Fold change vs veh, ZBTB11 / RFU, TAMM41 / Fold change vs veh, TAMM41 / RFU, KIAA1704 /// LOC100996395 / Fold change vs veh, KIAA1704 /// LOC100996395 / RFU, ING1 / Fold change vs veh, ING1 / RFU, TRMT61B / Fold change vs veh, TRMT61B / RFU, FUBP3 / Fold change vs veh, FUBP3 / RFU, TP53 / Fold change vs veh, TP53 / RFU, TNKS2 / Fold change vs veh, TNKS2 / RFU, ZFP14 / Fold change vs veh, ZFP14 / RFU, ACTR2 / Fold change vs veh, ACTR2 / RFU, PPP3R1 / Fold change vs veh, PPP3R1 / RFU, PIK3R1 / Fold change vs veh, PIK3R1 / RFU, HNRNPA1 / Fold change vs veh, HNRNPA1 / RFU, RNF170 / Fold change vs veh, RNF170 / RFU, ZNF28 / Fold change vs veh, ZNF28 / RFU, RNGTT / Fold change vs veh, RNGTT / RFU, OGT / Fold change vs veh, OGT / RFU, BRD1 / Fold change vs veh, BRD1 / RFU, MARS / Fold change vs veh, MARS / RFU, ZNF655 / Fold change vs veh, ZNF655 / RFU, FAHD1 / Fold change vs veh, FAHD1 / RFU, BDP1 / Fold change vs veh, BDP1 / RFU, LRRCC1 / Fold change vs veh, LRRCC1 / RFU, ARID1A / Fold change vs veh, ARID1A / RFU, ZNF146 / Fold change vs veh, ZNF146 / RFU, ZNF330 / Fold change vs veh, ZNF330 / RFU, GPN3 / Fold change vs veh, GPN3 / RFU, C9orf123 / Fold change vs veh, C9orf123 / RFU, N4BP2L2 / Fold change vs veh, N4BP2L2 / RFU, ARFIP1 / Fold change vs veh, ARFIP1 / RFU, FAM179B / Fold change vs veh, FAM179B / RFU, BCL10 / Fold change vs veh, BCL10 / RFU, UHRF1BP1L / Fold change vs veh, UHRF1BP1L / RFU, BET1 / Fold change vs veh, BET1 / RFU, CNOT2 / Fold change vs veh, CNOT2 / RFU, ZNF268 / Fold change vs veh, ZNF268 / Fold change vs veh, ZNF507 / RFU, DGCR2 / Fold change vs veh, DGCR2 / RFU, WDSUB1 / Fold change vs veh, WDSUB1 / Fold change vs veh, HSP90B1 /// MIR3652 / RFU, ADSS / Fold change vs veh, ADSS / RFU, GK / Fold change vs veh, GK / RFU, ZNF148 / Fold change vs veh, ZNF148 / RFU, TAF9 / Fold change vs veh, TAF9 / RFU, SLC1A5 / Fold change vs veh, SLC1A5 / RFU, SLMO2 / Fold change vs veh, SLMO2 / RFU, ABCC4 / Fold change vs veh, ABCC4 / RFU, LOC101060439 /// RAP1B / Fold change vs veh, LOC101060439 /// RAP1B / RFU, RFX7 / Fold change vs veh, RFX7 / RFU, GTPBP10 / Fold change vs veh, GTPBP10 / RFU, CNEP1R1 / Fold change vs veh, CNEP1R1 / RFU, BIVM-ERCC5 /// ERCC5 / Fold change vs veh, BIVM-ERCC5 /// ERCC5 / RFU, ILF3 / Fold change vs veh, ILF3 / RFU 11762660_at / Fold change /veh 11762660_at / RFU VCAN (11757783_s_at) / Fold change /veh VCAN (11757783_s_at) / RFU DDX43 (11728927_at) / Fold change /veh DDX43 (11728927_at) / RFU KRT8 (11758188_x_at) / Fold change /veh KRT8 (11758188_x_at) / RFU NKD1 (11759106_at) / Fold change /veh NKD1 (11759106_at) / RFU SRD5A1 (11742802_a_at) / Fold change /veh SRD5A1 (11742802_a_at) / RFU TPSAB1 /// TPSB2 (11721975_s_at) / Fold change /veh TPSAB1 /// TPSB2 (11721975_s_at) / RFU GSTM3 (11746129_a_at) / Fold change /veh GSTM3 (11746129_a_at) / RFU IL23R (11737362_x_at) / Fold change /veh IL23R (11737362_x_at) / RFU TMEM51 (11727254_a_at) / Fold change /veh TMEM51 (11727254_a_at) / RFU PIWIL2 (11732686_x_at) / Fold change /veh PIWIL2 (11732686_x_at) / RFU ORM1 (11744905_x_at) / Fold change /veh ORM1 (11744905_x_at) / RFU CCDC152 (11743942_at) / Fold change /veh CCDC152 (11743942_at) / RFU ECM1 (11717891_a_at) / Fold change /veh ECM1 (11717891_a_at) / RFU IL23R (11748794_a_at) / Fold change /veh IL23R (11748794_a_at) / RFU TNFAIP8L3 (11732012_x_at) / Fold change /veh TNFAIP8L3 (11732012_x_at) / RFU MBOAT4 (11741988_at) / Fold change /veh MBOAT4 (11741988_at) / RFU 11764193_at / Fold change /veh 11764193_at / RFU TMEM53 (11763286_at) / Fold change /veh TMEM53 (11763286_at) / RFU MAGEB2 (11727129_at) / Fold change /veh MAGEB2 (11727129_at) / RFU TMEM200A (11744735_a_at) / Fold change /veh TMEM200A (11744735_a_at) / RFU CCDC152 (11751479_a_at) / Fold change /veh CCDC152 (11751479_a_at) / RFU FAM211A (11726209_a_at) / Fold change /veh FAM211A (11726209_a_at) / RFU RGS16 (11746705_a_at) / Fold change /veh RGS16 (11746705_a_at) / RFU VCAN (11755009_s_at) / Fold change /veh VCAN (11755009_s_at) / RFU RHOB (11743442_s_at) / Fold change /veh RHOB (11743442_s_at) / RFU RGS16 (11720943_a_at) / Fold change /veh RGS16 (11720943_a_at) / RFU RGS16 (11720944_at) / Fold change /veh RGS16 (11720944_at) / RFU, VPS4B / Fold change vs veh, VPS4B / RFU, CREB1 / Fold change vs veh, CREB1 / RFU, DNAJC13 / Fold change vs veh, DNAJC13 / RFU, GNAQ / Fold change vs veh, GNAQ / RFU, CDK5R1 / Fold change vs veh, CDK5R1 / RFU, ZRANB3 / Fold change vs veh, ZRANB3 / RFU, CUL4A / Fold change vs veh, CUL4A / RFU, CCNY / Fold change vs veh, CCNY / RFU, UFL1 / Fold change vs veh, UFL1 / RFU, COG3 / Fold change vs veh, COG3 / RFU, DIAPH2 / Fold change vs veh, DIAPH2 / RFU, SKA2 / Fold change vs veh, SKA2 / RFU, AFF3 / Fold change vs veh, AFF3 / RFU, LMF1 / Fold change vs veh, LMF1 / RFU, IPO11 / Fold change vs veh, IPO11 / RFU, DFFB / Fold change vs veh, DFFB / RFU, FOXP1 / Fold change vs veh, FOXP1 / RFU, CARD8 / Fold change vs veh, CARD8 / RFU, STRN3 / Fold change vs veh, STRN3 / RFU, ADK / Fold change vs veh, ADK / RFU, RASSF2 / Fold change vs veh, RASSF2 / RFU, WIPF1 / Fold change vs veh, WIPF1 / RFU, LARP1B / Fold change vs veh, LARP1B / RFU, RASA1 / Fold change vs veh, RASA1 / RFU, RB1 / Fold change vs veh, RB1 / RFU, PPFIA1 / Fold change vs veh, PPFIA1 / RFU, MAT2A / Fold change vs veh, MAT2A / RFU, CCT5 / Fold change vs veh, CCT5 / RFU, WDR92 / Fold change vs veh, WDR92 / RFU, CUX1 / Fold change vs veh, CUX1 / RFU, TTC7A / Fold change vs veh, TTC7A / RFU, TMEM135 / Fold change vs veh, TMEM135 / RFU, DEPTOR / Fold change vs veh, DEPTOR / RFU, CPM / Fold change vs veh, CPM / RFU, DNAJB6 / Fold change vs veh, DNAJB6 / RFU, CACNA2D3 / Fold change vs veh, CACNA2D3 / RFU, DTX4 / Fold change vs veh, DTX4 / RFU, TFCP2 / Fold change vs veh, TFCP2 / RFU, GMCL1 /// GMCL1P1 / Fold change vs veh, GMCL1 /// GMCL1P1 / RFU, AEBP2 / Fold change vs veh, AEBP2 / RFU, SNHG1 /// SNORD22 /// SNORD25 /// SNORD26 /// SNORD27 /// SNORD28 /// SNORD29 /// SNORD31 / Fold change vs veh, SNHG1 /// SNORD22 /// SNORD25 /// SNORD26 /// SNORD27 /// SNORD28 /// SNORD29 /// SNORD31 / Fold change (Aza/veh), C12orf56 (ProbeSet 11735607_a_at) / Fold change (ACY-1035/veh), C12orf56 (ProbeSet 11735607_a_at) / Fold change (Aza/veh), FGFR1OP (ProbeSet 11751329_s_at) / Fold change (ACY-1035/veh), FGFR1OP (ProbeSet 11751329_s_at) / Fold change (Aza/veh), VPS36 (ProbeSet 11739960_a_at) / Fold change (ACY-1035/veh), VPS36 (ProbeSet 11739960_a_at) / RFU SYPL1 (11715823_x_at) / Fold change /veh SYPL1 (11715823_x_at) / RFU IGFBP7 (11715501_s_at) / Fold change /veh IGFBP7 (11715501_s_at) / RFU REEP3 (11722064_at) / Fold change /veh REEP3 (11722064_at) / RFU IGLL1 (11728026_x_at) / Fold change /veh IGLL1 (11728026_x_at): dose or concentration left out as unconfirmed. The note with it: ProbeSet 11720270_a_at; LIST B.

Regarding `Nc1ncn([C@@H]2O[C@H](CO)[C@@H](O)[C@H]2O)c(=O)n1` [azacitidine], the “Fold change vs veh, IBTK” value was 0.96.
